We go through four compounds from US11331299B2, “Medicinal use of serrulatane diterpenes” (The University of Sydney, priority 2016, dated 2022).

Assay [1] deals with Deacetylase, Histone 4 (Homo sapiens, UniProt P56524). Nature of the assay: Deacetylase, Histone 4 (PanLab). Format: biochemical. The note with it: assay year 2014, read-out: % Control Response.
The target of assay [2] is Deacetylase, Histone 10 (Homo sapiens, UniProt Q969S8). The assay is described as follows: Deacetylase, Histone 10 (PanLab). It is filed as biochemical. The following applies: assay year 2014, read-out: % Control Response.
The target in assay [3] is Deacetylase, Sirtuin SIRT5 (Homo sapiens, UniProt Q9NXA8). Nature of the assay: Deacetylase, Sirtuin SIRT5 (PanLab). It is filed as biochemical. The following applies: assay year 2014, read-out: % Control Response.
The target of assay [4] is Deacetylase, Sirtuin SIRT6 (Homo sapiens, UniProt Q8N6T7). Nature of the assay: Deacetylase, Sirtuin SIRT6 (PanLab). The note with it: assay year 2014, read-out: % Control Response. Format: biochemical.
Assay [5] deals with Deacetylase, Histone 7 (Homo sapiens, UniProt Q8WUI4). Nature of the assay: Deacetylase, Histone 7 (PanLab). The following applies: assay year 2014, read-out: % Control Response. It is filed as biochemical.
Assay [6] relates to H3K9 ac (increase). Nature of the assay: Cell-based stimulation assay. The note with it: 10 μM.
The subject of assay [7] is H3K27 ac (increase). Nature of the assay: Cell-based stimulation assay. The following applies: 10 μM.
Assay [8] addresses enzymes (Bioprint panel) (Homo sapiens, UniProt P03956). Nature of the assay: biochemical. The note with it: MMP-1 (h); 10 μM; read-out: % Inhibition of Control Values.
In assay [9] the target is enzymes (Bioprint panel) (Homo sapiens, UniProt P56817). The assay is described as follows: biochemical. The note with it: BACE-1 (h) (beta -secretase); 10 μM; read-out: % Inhibition of Control Values.
The subject of assay [10] is enzymes (Bioprint panel). The assay is described as follows: biochemical. The following applies: COMT (catechol- O-methyl transferase); 10 μM.
Assay [11] concerns the target enzymes (Bioprint panel) (Homo sapiens, UniProt O76074). Nature of the assay: biochemical. The note with it: PDE5 (h) (non-selective); 10 μM; read-out: % Inhibition of Control Values.
Assay [12] concerns T1, enzymes (Bioprint panel).
T1 construct: other: ATPase (Na+/K+); 10 μM
Nature of the assay: biochemical. The following applies: ATPase (Na+/K+); 10 μM.

Assay [13] deals with enzymes (Bioprint panel) (Homo sapiens, UniProt P42574). Nature of the assay: biochemical. The note with it: caspase-3 (h); 10 μM; read-out: % Inhibition of Control Values.
Assay [14] deals with enzymes (Bioprint panel) (Homo sapiens, UniProt P14780). The assay is described as follows: biochemical. The following applies: MMP-9 (h); 10 μM; read-out: % Inhibition of Control Values.
The target in assay [15] is enzymes (Bioprint panel) (Homo sapiens, UniProt P06213). The assay is described as follows: biochemical. The following applies: IRK (h) (InsR); 10 μM; read-out: % Inhibition of Control Values.
Assay [16] concerns the target enzymes (Bioprint panel) (Homo sapiens, UniProt P12821). The assay is described as follows: biochemical. The following applies: ACE (h); 10 μM; read-out: % Inhibition of Control Values.
Assay [17] addresses enzymes (Bioprint panel) (Homo sapiens, UniProt P17948). Nature of the assay: biochemical. The note with it: FLT-1 kinase (h) (VEGFR1); 10 μM; read-out: % Inhibition of Control Values.
In assay [18] the target is enzymes (Bioprint panel) (Homo sapiens, UniProt P43403). Nature of the assay: biochemical. The following applies: ZAP70 kinase (h); 10 μM; read-out: % Inhibition of Control Values.
Assay [19] addresses T2, enzymes (Bioprint panel) (Homo sapiens, UniProt O00408).
T2 construct: other: PDE2A1 (h); 10 μM; PDE2A1 (h)
Nature of the assay: biochemical. The following applies: PDE2A1 (h); 10 μM; read-out: % Inhibition of Control Values.

Assay [20] concerns the target enzymes (Bioprint panel) (Rattus norvegicus, UniProt P21396). Nature of the assay: biochemical. The following applies: MAO-A (antagonist radioligand); 10 μM; read-out: % Inhibition of Control Values.
The target of assay [21] is enzymes (Bioprint panel) (Homo sapiens, UniProt P07948). Nature of the assay: biochemical. The note with it: Lyn A kinase (h); 10 μM; read-out: % Inhibition of Control Values.
Assay [22] deals with enzymes (Bioprint panel) (Homo sapiens, UniProt Q13370). Nature of the assay: biochemical. The following applies: PDE3B (h); 10 μM; read-out: % Inhibition of Control Values.
In assay [23] the target is enzymes (Bioprint panel) (Homo sapiens, UniProt Q9UQM7). Nature of the assay: biochemical. The note with it: CaMK2alpha (h); 10 μM; read-out: % Inhibition of Control Values.
In assay [24] the target is enzymes (Bioprint panel) (Mus musculus, UniProt P29477). The assay is described as follows: biochemical. The note with it: inducible NOS; 10 μM; read-out: % Inhibition of Control Values.
Assay [25] addresses enzymes (Bioprint panel) (Homo sapiens, UniProt P28482). Nature of the assay: biochemical. The following applies: ERK2 (h) (P42mapk); 10 μM; read-out: % Inhibition of Control Values.
Assay [26] has as its target enzymes (Bioprint panel) (Homo sapiens, UniProt P00519). Nature of the assay: biochemical. The following applies: Abl kinase (h); 10 μM; read-out: % Inhibition of Control Values.
The target in assay [27] is enzymes (Bioprint panel) (Homo sapiens, UniProt Q16539). The assay is described as follows: biochemical. The note with it: p38alpha kinase (h); 10 μM; read-out: % Inhibition of Control Values.
In assay [28] the target is T3, enzymes (Bioprint panel) (UniProt P04585).
T3 construct: other: HIV-1 protease; 10 μM
Nature of the assay: biochemical. The note with it: HIV-1 protease; 10 μM.

Assay [29] concerns the target enzymes (Bioprint panel) (Homo sapiens, UniProt Q9BYF1). Nature of the assay: biochemical. The following applies: ACE-2 (h); 10 μM; read-out: % Inhibition of Control Values.
Assay [30] has as its target T4, enzymes (Bioprint panel) (Homo sapiens, UniProt Q08499).
T4 construct: other: PDE4D2 (h); 10 μM; PDE4D2 (h)
Nature of the assay: biochemical. The following applies: PDE4D2 (h); 10 μM; read-out: % Inhibition of Control Values.

Assay [31] deals with SUV39H2 (h) (Homo sapiens, UniProt Q9H5I1). The note with it: read-out: Reference: (IC50 not given); cited from earlier work.

Sequence of Deacetylase, Sirtuin SIRT5 (Q9NXA8 37-310): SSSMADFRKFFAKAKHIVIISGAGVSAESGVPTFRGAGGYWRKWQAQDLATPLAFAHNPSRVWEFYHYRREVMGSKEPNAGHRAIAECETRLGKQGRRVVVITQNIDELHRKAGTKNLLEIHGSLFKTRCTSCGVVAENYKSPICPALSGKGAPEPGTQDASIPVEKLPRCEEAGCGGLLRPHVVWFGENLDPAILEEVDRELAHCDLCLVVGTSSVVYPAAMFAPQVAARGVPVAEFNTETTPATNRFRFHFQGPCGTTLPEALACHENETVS
Sequence of Deacetylase, Sirtuin SIRT6 (Q8N6T7 whole entry): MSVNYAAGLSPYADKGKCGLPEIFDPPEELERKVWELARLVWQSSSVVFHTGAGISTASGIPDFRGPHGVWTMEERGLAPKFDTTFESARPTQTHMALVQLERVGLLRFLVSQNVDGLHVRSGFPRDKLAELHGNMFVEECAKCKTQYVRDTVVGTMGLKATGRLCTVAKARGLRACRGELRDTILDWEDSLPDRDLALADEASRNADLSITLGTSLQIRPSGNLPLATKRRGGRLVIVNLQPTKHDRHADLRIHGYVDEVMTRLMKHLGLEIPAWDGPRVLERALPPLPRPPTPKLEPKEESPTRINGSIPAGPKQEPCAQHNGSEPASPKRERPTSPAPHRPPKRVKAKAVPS
Sequence of Deacetylase, Histone 10 (Q969S8 whole entry): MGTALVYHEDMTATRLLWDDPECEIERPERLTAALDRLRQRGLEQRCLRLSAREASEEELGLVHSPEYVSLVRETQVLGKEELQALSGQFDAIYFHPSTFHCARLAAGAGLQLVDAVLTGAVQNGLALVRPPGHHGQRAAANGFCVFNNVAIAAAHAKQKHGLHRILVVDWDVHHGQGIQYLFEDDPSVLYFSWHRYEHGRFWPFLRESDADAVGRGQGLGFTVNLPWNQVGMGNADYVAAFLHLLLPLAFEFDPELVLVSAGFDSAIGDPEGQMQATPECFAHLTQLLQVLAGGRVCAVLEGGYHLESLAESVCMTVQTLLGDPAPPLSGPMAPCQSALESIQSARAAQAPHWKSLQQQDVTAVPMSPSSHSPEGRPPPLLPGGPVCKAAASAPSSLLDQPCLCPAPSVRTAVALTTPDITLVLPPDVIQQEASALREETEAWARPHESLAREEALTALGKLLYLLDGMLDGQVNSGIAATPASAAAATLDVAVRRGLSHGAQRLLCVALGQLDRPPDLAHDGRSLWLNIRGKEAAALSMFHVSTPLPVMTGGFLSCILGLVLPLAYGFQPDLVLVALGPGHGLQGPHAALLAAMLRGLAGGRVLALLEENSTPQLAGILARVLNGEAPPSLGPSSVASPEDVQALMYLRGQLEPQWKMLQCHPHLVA
Sequence of Deacetylase, Histone 7 (Q8WUI4 whole entry): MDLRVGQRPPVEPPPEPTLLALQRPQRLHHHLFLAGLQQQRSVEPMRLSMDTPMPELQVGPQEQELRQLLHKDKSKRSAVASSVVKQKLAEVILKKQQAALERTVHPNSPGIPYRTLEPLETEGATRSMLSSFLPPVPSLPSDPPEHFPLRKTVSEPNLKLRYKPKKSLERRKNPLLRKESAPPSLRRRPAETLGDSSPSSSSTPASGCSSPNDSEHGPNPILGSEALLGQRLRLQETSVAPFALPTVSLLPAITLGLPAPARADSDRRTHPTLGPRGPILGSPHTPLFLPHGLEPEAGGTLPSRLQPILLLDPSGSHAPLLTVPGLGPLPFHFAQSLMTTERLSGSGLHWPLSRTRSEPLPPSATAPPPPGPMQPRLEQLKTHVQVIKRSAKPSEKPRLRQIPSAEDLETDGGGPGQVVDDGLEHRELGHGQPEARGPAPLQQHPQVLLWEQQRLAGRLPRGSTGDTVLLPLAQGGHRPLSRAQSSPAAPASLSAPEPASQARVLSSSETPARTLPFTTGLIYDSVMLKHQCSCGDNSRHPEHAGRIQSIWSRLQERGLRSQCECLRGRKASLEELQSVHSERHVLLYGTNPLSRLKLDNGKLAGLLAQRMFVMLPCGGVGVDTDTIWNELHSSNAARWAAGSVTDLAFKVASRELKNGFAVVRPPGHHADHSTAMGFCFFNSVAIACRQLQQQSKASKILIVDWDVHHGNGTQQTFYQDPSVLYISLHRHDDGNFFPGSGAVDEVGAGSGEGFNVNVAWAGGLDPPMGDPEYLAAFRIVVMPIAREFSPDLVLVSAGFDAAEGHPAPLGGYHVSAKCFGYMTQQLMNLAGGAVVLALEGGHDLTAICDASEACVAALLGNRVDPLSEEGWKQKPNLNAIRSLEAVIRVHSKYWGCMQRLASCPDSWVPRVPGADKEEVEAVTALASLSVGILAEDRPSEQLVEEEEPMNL
Sequence of Deacetylase, Histone 4 (P56524 whole entry): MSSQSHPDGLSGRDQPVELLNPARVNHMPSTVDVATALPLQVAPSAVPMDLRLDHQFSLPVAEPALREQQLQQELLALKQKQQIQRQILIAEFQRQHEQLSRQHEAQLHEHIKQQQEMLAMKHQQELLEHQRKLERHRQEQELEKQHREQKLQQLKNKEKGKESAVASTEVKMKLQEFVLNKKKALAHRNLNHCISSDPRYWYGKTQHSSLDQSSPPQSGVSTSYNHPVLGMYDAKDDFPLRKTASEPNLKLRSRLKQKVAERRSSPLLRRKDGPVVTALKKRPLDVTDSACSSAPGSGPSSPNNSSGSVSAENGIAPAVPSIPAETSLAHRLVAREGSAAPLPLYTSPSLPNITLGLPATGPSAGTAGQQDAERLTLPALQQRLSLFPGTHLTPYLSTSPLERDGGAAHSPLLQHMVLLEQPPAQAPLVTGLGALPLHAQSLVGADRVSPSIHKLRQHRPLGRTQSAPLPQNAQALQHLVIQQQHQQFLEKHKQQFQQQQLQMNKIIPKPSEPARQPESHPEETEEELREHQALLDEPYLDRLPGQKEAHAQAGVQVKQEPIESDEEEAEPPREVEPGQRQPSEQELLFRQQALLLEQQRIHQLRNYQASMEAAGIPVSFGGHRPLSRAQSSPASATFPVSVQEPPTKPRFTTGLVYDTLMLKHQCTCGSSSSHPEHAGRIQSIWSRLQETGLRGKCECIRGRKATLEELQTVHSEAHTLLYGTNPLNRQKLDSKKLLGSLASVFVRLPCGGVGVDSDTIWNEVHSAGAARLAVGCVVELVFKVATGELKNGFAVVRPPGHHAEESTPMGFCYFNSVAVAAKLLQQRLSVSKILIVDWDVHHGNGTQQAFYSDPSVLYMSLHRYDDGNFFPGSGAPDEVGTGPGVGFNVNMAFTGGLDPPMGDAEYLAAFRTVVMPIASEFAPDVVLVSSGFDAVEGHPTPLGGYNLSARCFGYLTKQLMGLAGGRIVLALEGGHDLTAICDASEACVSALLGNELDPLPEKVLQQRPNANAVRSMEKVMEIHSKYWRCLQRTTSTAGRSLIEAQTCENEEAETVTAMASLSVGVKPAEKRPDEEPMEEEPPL
Sequence of enzymes (Bioprint panel) (Homo sapiens, UniProt P00519) (P00519 whole entry): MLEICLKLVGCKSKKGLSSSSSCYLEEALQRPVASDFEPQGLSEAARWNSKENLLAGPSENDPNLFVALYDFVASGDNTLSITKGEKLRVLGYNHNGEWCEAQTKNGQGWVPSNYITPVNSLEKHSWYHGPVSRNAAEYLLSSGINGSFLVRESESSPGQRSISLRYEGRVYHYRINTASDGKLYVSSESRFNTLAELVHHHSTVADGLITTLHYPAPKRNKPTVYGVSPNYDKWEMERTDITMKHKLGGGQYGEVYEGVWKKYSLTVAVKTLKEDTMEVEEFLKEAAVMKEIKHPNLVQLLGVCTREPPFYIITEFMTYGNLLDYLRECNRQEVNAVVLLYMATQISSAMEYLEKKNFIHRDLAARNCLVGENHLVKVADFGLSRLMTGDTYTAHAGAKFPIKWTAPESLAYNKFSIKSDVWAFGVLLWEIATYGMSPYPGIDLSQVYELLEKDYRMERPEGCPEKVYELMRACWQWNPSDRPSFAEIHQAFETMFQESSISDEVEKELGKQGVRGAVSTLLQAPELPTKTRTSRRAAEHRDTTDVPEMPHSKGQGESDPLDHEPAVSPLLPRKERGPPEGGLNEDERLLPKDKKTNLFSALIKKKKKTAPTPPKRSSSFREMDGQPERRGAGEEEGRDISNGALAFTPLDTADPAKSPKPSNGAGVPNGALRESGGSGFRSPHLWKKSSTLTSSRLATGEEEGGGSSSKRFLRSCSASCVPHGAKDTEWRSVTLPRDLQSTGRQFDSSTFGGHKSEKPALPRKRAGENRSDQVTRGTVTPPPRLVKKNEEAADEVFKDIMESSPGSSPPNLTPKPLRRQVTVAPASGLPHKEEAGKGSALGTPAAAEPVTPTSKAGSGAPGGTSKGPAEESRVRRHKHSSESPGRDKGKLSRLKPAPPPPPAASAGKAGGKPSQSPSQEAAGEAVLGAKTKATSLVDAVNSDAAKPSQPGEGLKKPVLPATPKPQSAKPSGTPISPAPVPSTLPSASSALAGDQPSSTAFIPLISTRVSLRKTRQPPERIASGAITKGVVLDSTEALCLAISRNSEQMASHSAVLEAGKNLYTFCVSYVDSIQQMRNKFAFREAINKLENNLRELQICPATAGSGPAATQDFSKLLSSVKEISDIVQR
Sequence of enzymes (Bioprint panel) (Homo sapiens, UniProt P28482) (P28482 whole entry): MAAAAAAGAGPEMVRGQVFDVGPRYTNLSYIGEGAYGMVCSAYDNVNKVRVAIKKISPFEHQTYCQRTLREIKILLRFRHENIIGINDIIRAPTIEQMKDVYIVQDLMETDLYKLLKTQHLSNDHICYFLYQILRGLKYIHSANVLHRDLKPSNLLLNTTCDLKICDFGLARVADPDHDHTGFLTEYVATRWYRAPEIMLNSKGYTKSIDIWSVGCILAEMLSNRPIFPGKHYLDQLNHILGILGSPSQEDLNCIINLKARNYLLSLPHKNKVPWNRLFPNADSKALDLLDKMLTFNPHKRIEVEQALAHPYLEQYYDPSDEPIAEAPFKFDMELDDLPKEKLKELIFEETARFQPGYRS

In the case of `CC(C)=CCC[C@@H]1C(O)Oc2c(C)cc(O)c3c2[C@H]1CC[C@H]3C` (some centres unmarked) [Compound 2, 5,18-epoxyserrulat-14-en-8,18-diol], the remaining activity at 10 µM was -5% in assay [1]; 9% in assay [2]; 24% in [3]; 18% in [4]; -16% in [5].

On to `CC(C)=CCC[C@@H]1COc2c(C)cc(O)c3c2[C@H]1CC[C@H]3C` [Compound 3, 5,18-epoxy-8-hydroxyserrulat-14-ene], for which the figures for the “% Stimulation Relative to Control” value in assay [6] and in [7] were −8% and −25%, respectively.

As usually defined, the inhibition is the relative decrease from the control value, in per cent. `CC(C)=CCC[C@H](CO)[C@@H]1CC[C@@H](C)c2c1cc(C)c(O)c2O` [Compound 1, 7,8,18-trihydroxyserrulat-14-ene]: the remaining activity at 10 µM is 4% in assay [1]; 11% in assay [2]; -16% in assay [3]; 35% in assay [4]; 1% in assay [5]. The inhibition at 10 µM in assay [8] is -2%; in assay [9] it was 0%; in assay [11], 11%; in [13], -3%; in assay [14], 1%; in assay [15], -15%. The inhibition at 10 µM in [16] came to 14%; in assay [17], 36%; in assay [18], 33%; in assay [19], 43%; in assay [20], 15%; in [21] it was 9%. In addition, the inhibition at 10 µM in [22] was -3%; in assay [23], 2%; in [24] it was -1%; in [25], 6%; in assay [26] it was 14%; in assay [27], 4%. Besides, the inhibition at 10 µM was -3% in assay [29] and 55% in assay [30]. The “% Inhibition of Control Values” in [10] is −6%; in assay [12], 22%; in assay [28] it was 9%. Besides, the figures for the “% Stimulation Relative to Control” value in [6] and in [7] were −21% and −28%, respectively.

By IC50 is commonly meant the concentration at which inhibition is half-maximal. In the case of `Nc1ncnc2c1ncn2[C@@H]1O[C@H](CSCC[C@H](N)C(=O)O)[C@@H](O)[C@H]1O` [SAH], the IC50 in [31] is 24 µM.
